Assay results published in patent US20090325219A1, “DEVICE, SYSTEM AND ASSAY FOR MEASURING CELL MOTILITY” (The Queen's University of Belfast, priority 2006, published 2009).
“Also recorded” adds a separate entry of the source.

Experiments:
Format in all cases: cell-based, rat
AY-27 cells [1] = experiment: Conventional Matrigel invasion assay; conditions: 24 h and 48 h, compared to Mock-TGF and SdM, p<0.05 Student's t-test
Experimental: FCS (10%) in 0.75 ml RPMI-1640 acted as the chemo-attractant. This was added to the lower compartment of 24-well BioCoat Matrigel invasion chambers (Becton Dickinson Labware, Bedford, Mass.) with an 8-μm pore polycarbonate filter coated with Matrigel. In the upper compartment, 8×10^5 cells/well in SdM were placed in triplicate wells and incubated for 24 h and 48 h at 37° C. in a humidified incubator with 5% CO2. After incubation, the cells that had passed through the filter into the lower wells were stained with Speedy-Diff Rapid Giemsa (Clin-Tech Ltd, Essex, UK. #61078, #61079, #61080) and counted by assessing 10 random high power fields images using ×400 magnification on a Leitz Labrodux K (Germany) light microscope.
(§1) FIG. 10 details results of a conventional motility assay (A) and the Matrigel invasion assay (B). […] Cells were treated with Mock-TGF (i), SdM (ii) or 3 ng.ml TGF-β1 (iii) and images were captured after 24 h and 48 h. The percentage of wound healing was calculated by counting the number of boxes at least half covered by cells in the 5 mm×5 mm grid-rule (A). […] Cells were treated with Mock-TGF (i), SdM (ii) or TGF-β1 (iii) and cells that passed successfully through the matrigel membrane after 24 h and after 48 h were Giemsa stained and enumerated.

AY-27 cells [2] = experiment: Conventional scratch wound assay; conditions: compared to SdM and Mock-TGF
Experimental: Sub-confluent AY-27 cells were detached and 5×10^6 were seeded into 6-well tissue culture plates. The cells were grown to 100% confluency before treatment with Mock-TGF, SdM or 3 ng/ml TGF-β1 in duplicates for 24 h and 48 h. An in vitro “scratch wound” was created by scraping the confluent cell monolayer with a sterile pipette tip to make an approximate 1.0 mm gap. Three fixed points were marked in each well and phase-contrast images were captured at these same points over the 24 h and 48 h treatment course. The area of cells that had migrated beyond the ‘wound’ was estimated by superimposing a 5 mm×5 mm grid over the ‘wound’, and this was expressed as percentage when divided with the area of the ‘wound’.
as §1

AY-27 cells [3] = experiment: Assay of present invention (motility towards agarose chemo-attractant matrix); conditions: compared to Mock-TGF and SdM
Experimental: Ten millimetre coverslips were seeded with AY-27 cells at a density of 5×10^5 and grown to 100% confluency in 12-well plates. The AY-27 cells at 100% confluency on 10 mm coverslips were removed (A) and washed vigorously using SdM medium (B).
In a separate 12-well culture plate, 1 ml of heated 2% agarose matrix consisting of 50% FCS and 50% supplemented RPMI thoroughly mixed was pipetted into each well, and allowed to cool and solidify (C).
A sterile 12 mm diameter metal ring was then used to cut out a circular area in the centre of the matrix (D & E) to provide a cell receiving zone and also to expose a portion of the supporting substrate to form the bridging portion between the cell receiving zone and the agent receiving matrix.
AY-27 cells on the 10 mm coverslip were then placed into the empty tissue receiving zone from which the agarose had been removed (F) such that the sample is spaced apart from and surrounded by the agarose (chemo-attractant agent receiving matrix).
An indentation provided in the cell receiving zone, allows reproducible locating of the coverslip including the cells to be tested in the cell receiving zone. The indentation is of suitable depth such that the top surface of the located slide is substantially flush with surrounding surface of the receiving surface. […]

## TGF-β1: Recombinant human TGF-β1 (R&D systems), a known promoter to tumour progression
AY-27 cells [1]
  cells migrated across the matrigel: Significantly more cells were present in the membrane; also recorded: significantly more TGF-β1 treated cells migrated across the matrigel
AY-27 cells [2]; 3 ng/ml TGF-β1, 24 h
  motility / wound closure: earlier wound closure
AY-27 cells [2]; 3 ng/ml TGF-β1, 48 h
  motility / wound closure: this effect did not persist
AY-27 cells [3]; 3 ng/ml TGF-β1, 24 h
  numbers of migrating cells (grid boxes covered): no significant differences
AY-27 cells [3]; 3 ng/ml TGF-β1, 48 h, p<0.05 student t-test
  numbers of migrating cells (grid boxes covered): significantly more cells had migrated; also recorded: significantly greater numbers
